Structures are written as SMILES. In brackets after ≈: the same amount, converted by molar mass. Activity calls are given as the source filed them. The calls are words filed in the database; no cut-off is given here.

The target in one assay is T1, dTDP-4-dehydrorhamnose reductase (Mycobacterium tuberculosis, UniProt P9WH09).
T1 sequence (P9WH09 whole entry): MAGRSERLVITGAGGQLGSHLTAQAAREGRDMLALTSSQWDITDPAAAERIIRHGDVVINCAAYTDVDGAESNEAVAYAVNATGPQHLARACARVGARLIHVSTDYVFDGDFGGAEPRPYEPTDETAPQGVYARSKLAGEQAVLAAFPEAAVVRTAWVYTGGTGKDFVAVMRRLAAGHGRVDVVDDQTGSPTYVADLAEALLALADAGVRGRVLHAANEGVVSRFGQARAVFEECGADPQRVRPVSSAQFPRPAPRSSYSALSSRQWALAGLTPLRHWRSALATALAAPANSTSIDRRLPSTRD
In words: Inhibition of Mycobacterium tuberculosis RmlD assessed as inhibition of dTDP-beta-6-deoxy-L-lyxo-4-hexulose to dTDP-beta-L-rhamnose conversion.
Details: not given
The IC50 is the point on the concentration scale where inhibition reaches its midpoint. As to `O=C1C=CC=CC1=C1c2cc(O)c(O)cc2Oc2cc(O)c(O)cc21`, the IC50 turned out to be 2100 nM. Still for that read-out and setting: for `O=c1cc2oc3cc(O)c(O)cc3c(-c3ccccc3)c-2cc1O` the value was 900 nM; for `Cc1c2cc(O)c(=O)cc-2oc2cc(O)c(O)cc12`, 15000 nM.

Another assay relates to Mycobacterium tuberculosis. Description: Antimycobacterial activity against Mycobacterium tuberculosis H37Rv after 7 days by microbroth dilution-resazurin assay. Type of assay: functional. To be noted: 168 h. (In broth dilution the organism is exposed to a series of concentrations in liquid medium.)
Broadly, the MIC is the least concentration at which growth counts as inhibited. A high value points to a need for much substance. Take `C=Cc1cc(O)cc2c1-c1ccc(O)c(C)c1CC2` [EFFUSOL]: inhibition of growth (MIC) required 20 µg/mL (≈ 79.3 µM). Same read-out and setting: for `O=C1C=CC=CC1=C1c2cc(O)c(O)cc2Oc2cc(O)c(O)cc21` the value was 133 µg/mL (≈ 395 µM); for `O=c1cc2oc3cc(O)c(O)cc3c(-c3ccccc3)c-2cc1O`, 200 µg/mL (≈ 624 µM).

`Cc1c2cc(O)c(=O)cc-2oc2cc(O)c(O)cc12`: the MIC was found to be 62 µg/mL (≈ 240 µM). This MIC lies about 3.2-fold lower than the previous one.

In the next assay the target is T2, dTDP-4-dehydrorhamnose reductase (Mycobacterium tuberculosis) (UniProt P9WH09).
T2 sequence (whole entry): T1 sequence (P9WH09 whole entry)
In words: Inhibition of Mycobacterium tuberculosis RmlD assessed as inhibition of dTDP-beta-6-deoxy-L-lyxo-4-hexulose to dTDP-beta-L-rhamnose conversion at 10 ug/ml.
Details: not given
Turning to `O[C@@H]1[C@@H](OCc2ccccc2)OC[C@H](O)[C@@H]1O`, the inhibition entry is “inactive”.

Regarding `COc1cc(/N=N/c2c(O)nc3ccccc3c2O)c(OC)cc1/N=N/c1ccccc1`, the inhibition entry is “inactive”.

With `COc1ccccc1NC(=O)c1cc2cc(Br)ccc2cc1O`, the inhibition entry is “inactive”. Still for that read-out and setting: for `Cn1c(=O)c2nc(CNc3ccc(C(=O)O)cc3)[nH]c2n(C)c1=O` the value was “inactive”; for `CC(=O)OCc1cc(-c2nc3ccccc3nc2O)nn1-c1ccc(Cl)cc1`, “inactive”; for `CCC(CC)C(c1ccc(O)cc1)c1ccc(O)cc1`, “inactive”.

With `CSc1ncc2ncn([C@@H]3O[C@H](CO)[C@@H](O)[C@H]3O)c2n1`, the inhibition result is “inactive”. With `O=c1oc2c(cc1O)oc(=O)c1cc(O)c(O)c(O)c12`, the inhibition entry was “inactive”. With `O=C1CC(c2ccccc2)c2ccc(O)cc2O1` (configuration not stated), the inhibition entry was “inactive”. On the same count and under the same terms, with `O=C(O)/C=C/c1c2ccc(=O)c(O)c-2oc2c(O)c(O)ccc12` the entry was “inactive”; with `COc1cccc2c1[C@H](CO)N1[C@H](C#N)[C@@H]3C[C@H](C(=O)O)[C@@H]([C@@H]1C2)N3C`, “inactive”; with `NC(=O)CC[C@@H](C(=O)O)N1C(=O)c2ccc(O)cc2C1=O`, “inactive”. Still for that read-out and setting: with `N#Cc1cnn2ccn([C@@H]3O[C@H](CO)[C@@H](O)[C@H]3O)c12` the entry was “inactive”; with `COc1cc(C(=O)C(=O)c2cc(OC)c(O)c(OC)c2)cc(OC)c1O`, “inactive”; with `O=C(c1ccc(O)cc1)c1ccc(C(=O)c2ccc(O)cc2)cc1`, “inactive”. On the same count and under the same terms, for `C[C@@H]1O[C@@H](Oc2c(-c3cc(O)c(O)c(O)c3)oc3cc(O)cc(O)c3c2=O)[C@H](O)[C@H](O)[C@H]1O` the value was “inactive”; for `O=C1C(Cl)=C(Nc2ccc3c[nH]nc3c2)C(=O)c2ccccc21`, “inactive”; for `C=Cc1c(C)c(O)cc2c1-c1ccc(O)c(C)c1CC2`, “inactive”.

In the case of `Cc1cc(O)c2cc3c(O)c(O)ccc3cc2c1`, the inhibition result is “inactive”. Still for that read-out and setting: with `CC(c1cccc(O)c1)C(C)c1cccc(O)c1` (configuration not stated) the entry was “inactive”; with `COc1ccc(OC)c(NC(=O)c2cc3oc4ccccc4c3cc2O)c1`, “inactive”. The same measure, in the same setting: with `Cc1ccc(NC(=O)Nc2cccnc2)cc1NC(=O)Nc1cccnc1` the entry was “inactive”. Consider `CCC(c1ccc(O)cc1)C(CC)c1ccc(O)c(O)c1` (configuration not stated), for which the inhibition result is “inactive”. Same read-out and setting: for `O=C(OCC(O)COC(=O)c1cccnc1)c1cccnc1` the value was “inactive”; for `CCC(c1ccccc1)C(CC)c1ccc(O)c(O)c1` (configuration not stated), “inactive”; for `COc1ccc(NC(=O)c2cc3ccc4c5ccccc5[nH]c4c3cc2O)cc1`, “inactive”. `O=c1ccc2c(-c3ccccc3O)c3ccc(O)cc3oc-2c1`: the inhibition result is “inactive”. For the molecule `Oc1ccc(C(O)(c2ccccc2)c2ccc(O)c3ccccc23)c2ccccc12`, the inhibition result was “inactive”.

As for `CCC(c1ccccc1)C(CC)c1cc(O)c(O)c(O)c1` (configuration not stated), the inhibition entry is “inactive”. Same read-out and setting: with `CC(=O)Oc1c(C)c(OC(C)=O)c2c(c1C(C)=O)OC1CC(=O)C(C(C)=O)=C(O)C21C` (configuration not stated) the entry was “inactive”; with `O=C1C=C(c2ccccc2)OC(=O)C1C(=O)c1ccccc1` (configuration not stated), “inactive”; with `Oc1ccc2c(O)c3ccccc3cc2c1O`, “inactive”.

As to `Oc1cc(C(c2ccccc2)c2ccccc2)c2ccccc2c1O`, the inhibition entry is “inactive”. In the case of `NC(=S)c1cn([C@@H]2O[C@H](CO)[C@@H](O)[C@H]2O)c2ncnc(N)c12`, the inhibition result is “inactive”.

Turning to `Oc1ccc(C(c2ccc(O)cc2)c2ccc(O)cc2)cc1`, the inhibition result is “inactive”.

With `Cc1cc2c(cc1C)NC1=C(N2)OC(c2cccc(O)c2)C1=O` (configuration not stated), the inhibition entry was “inactive”. As for `O=C(/C=C/c1ccc2ccccc2n1)c1cc(Cl)ccc1O`, the inhibition result was “inactive”. The same measure, in the same setting: with `COc1cc(NC(=O)c2cc3ccccc3cc2O)c(OC)cc1Cl` the entry was “inactive”; with `N=C(N)c1ccc(/C=C/c2ccc(C(=N)N)cc2O)cc1`, “inactive”.

Turning to `COc1ccccc1/C=C/C(=O)/C=C/c1ccccc1O`, the inhibition result is “inactive”. On the same count and under the same terms, with `Cc1c(Cl)cccc1Nc1ncccc1C(=O)OCC(O)CO` (configuration not stated) the entry was “inactive”; with `CC(Cc1ccc(O)c(O)c1)C(C)Cc1ccc(O)c(O)c1` (configuration not stated), “inactive”. On the same count and under the same terms, for `Cc1cc(=O)oc2cc(O)c(O)cc12` the value was “inactive”; for `Oc1ccc(-c2ccc3ccccc3c2)cc1`, “inactive”; for `O=C(/C=C/c1ccc(O)c(O)c1)O[C@@H]1C[C@@](OC(=O)/C=C/c2ccc(O)c(O)c2)(C(=O)O)C[C@@H](O)[C@@H]1O`, “inactive”.

The record behind these values is ChEMBL document CHEMBL1938285, “Novel inhibitors of Mycobacterium tuberculosis dTDP-6-deoxy-L-lyxo-4-hexulose reductase (RmlD) identified by virtual screening” (Bioorg Med Chem Lett, 2011).
